In patent US20200277246A1, “TREATMENT METHOD, COMPOUNDS, AND METHOD OF INCREASING TRPV2 ACTIVITY” (THE FEINSTEIN INSTITUTE FOR MEDICAL RESEARCH, priority 2015, published 2020):

Test system: C57BL/6 mice with KRN serum transfer-induced arthritis
Assay: KRN serum transfer induced arthritis (clinical scores and histology)
Type: in vivo, mouse
Method: Seven to eight week-old C57BL/6 male mice (Jackson Laboratories) received 200 μl of KRN arthritogenic serum (Ji et al, “Genetic Influences on the End-Stage Effector Phase of Arthritis,” J. Exp. Med. 194 (3):321-330 (2001), which is hereby incorporated by reference in its entirety) (KBN TCR transgenic mice were a kind gift from Christophe Benoist and have been intercrossed with NOD at the Feinstein Institute to generate KRN mice and the arthritogenic serum) intraperitoneal (IP) on day zero (D0) and day 2 (D2). After the onset of clear ankle arthritis (day 3; D3), mice were started on O1821 10 mg/Kg IP BID or control vehicle (DMSO in saline solution). Arthritis severity was scored according to the system reported by Jirholt et al., “Genetic Linkage Analysis of Collagen-Induced Arthritis in the Mouse,” Eur. J. Immunol. 28 (10):3321-3328 (1998), which is hereby incorporated by reference in its entirety, which includes a number of involved joints and a degree of inflammation (swelling/redness) in a scale of 0-12 per mouse per day.
[…] Histology slides were scored without knowledge of treatment and according to a comprehensive scoring system previously reported that includes parameters for synovial hyperplasia, inflammatory cell infiltration, and bone and cartilage erosions (Brenner et al., “The Non-MHC Quantitative Trait Locus Cia10 Contains a Major Arthritis Gene and Regulates Disease Severity, Pannus Formation and Joint Damage,” Arthritis Rheum. 52 (1):322-332 (2005), which is hereby incorporated by reference in its entirety).

C=C(C)[C@@H]1CCC(C)=C[C@H]1c1c(O)cc(C)cc1O [Compound O1821]
Arthritis severity scores (10 mg/Kg BID IP from day 3 to day 9): reductions in arthritis severity scores
Arthritis severity index (ASI), mean±S.D. (10 mg/Kg IP BID from day 3): 38.8±6.3
Lower arthritis severity index (ASI) vs vehicle (10 mg/Kg IP BID from day 3): 30%
Histologic parameters (angiogenesis, inflammatory infiltration, pannus formation, loss of proteoglycan) (ankles at D10, blinded scoring): reduced several histologic parameters
Angiogenesis (histology, vs control vehicle): marked reduction
Synovial pannus formation (histology, vs control vehicle): reduced
Synovial tissue inflammatory infiltration (histology, vs control vehicle): reduced
